Test results published in US20260306640A1, “TECHNOLOGIES TARGETING CELL STATES” (Auron Therapeutics, Inc., priority 2023, published 2026).
Entries after “also recorded” stand apart in the source; their conditions may differ.

Assays:
[1] = system: histone acetylation (e.g., AcH3K9); assay: Histone H3K9 acetylation (AcH3K9), Western Blot, MOLM-13 cells; format: cell-based; details: FIG. 2
Method: In some embodiments, an assessment is performed using cells. In some embodiments, cells were treated with various compounds before assessing KAT2A and/or KAT2B levels, histone (e.g., H3K9) acetylation levels, cell states, growth, etc.
Western Blot: In some assessments, MOLM13, NCI-H1048, LASCPC-01 and NEPC organoid cells were treated with compounds at certain concentrations for certain periods of time, and cell pellets were lysed by adding 1-part 4×laemmli Sample buffer (e.g., Bio-Rad Catalog #1610747) along with Mercaptoethanol (e.g., Bio-Rad Catalog #1610710) according to manufacturer's instructions, and 1-part RIPA buffer with 2×protease and phosphatase inhibitor. The samples were sonicated 30% amplitude, 35 seconds on and 35 seconds off for 1 cycle and boiled at 95° C. for 5 minutes. 30-35 μL of samples were loaded on a 4-15% Criterion™ TGX Stain-Free™ Protein Gel (Bio-rad, 5678084). In some assessments, NCI-H1048 flash frozen tumor pieces were resuspended in RIPA buffer and homogenized on TissueLyser II with steel beads at 30 Hz for 3 minutes. Samples were then centrifuged at […] at 4° C. for 15 minutes. BCA protein determination was performed and samples normalized for 1.95 ug/uL. 19.5 uL were loaded and run on similar gels as cell pellets. […]

MOLM-13 cells = assay: Cell growth inhibition (cell count, 8 days), MOLM-13 cells; format: cell-based; details: Homo sapiens, 192 h, cell count after 8 days relative to DMSO control, FIG. 2 (B)
Method: FIG. 2. Provided compounds can provide various activities. (A): Provided technologies can reduce KAT2A and KAT2B levels and histone acetylation levels. […] Cell count data after 8 days of treatment with compound 22 relative to DMSO control are presented as examples to confirm inhibition. […] (C): Provided technologies can modulate cell states and induce differentiation. […] EC50=0.3 nM.

[2] = system: NCI-H1048 human lung cancer xenograft; assay: NCI-H1048 human lung cancer xenograft model, tumor growth inhibition (BALB/c nude mice); format: in vivo, mouse (BALB/c nude); human tumor cells; details: FIG. 1
Text: Among other things, provided technologies are useful for treating various diseases, disorders, or conditions. For example, in some embodiments, provided technologies are useful for treating cancer as confirmed in the present Example. In some embodiments, the present disclosure provides technologies for assessing various technologies, e.g., compounds, compositions, or methods. Among other things, the present Example provides technologies, e.g., xenograft model, for assessing various technologies. In some embodiments, provided technologies are assessed in tumor xenograft model. In some embodiments, provided technologies are assessed in NCI-H1048 human lung cancer xenograft model. […]
As described herein, various provided technologies are assessed in cancer xenograft models. […] A number of doses were assessed including 30 mg/kg. Assessed compounds were administered orally or via the intraperitoneal route. […]
Cell culture: NCI-H1048 tumor cells are maintained in vitro as monolayer culture in HITES Medium supplemented with 5% fetal bovine serum at 37° C. in an atmosphere of 5% CO2 in air. […] The cells growing in an exponential growth phase are harvested and counted for tumor inoculation. […]
Measurement Parameters: For routine monitoring, animals are monitored for tumor growth, behavior (e.g., mobility, food and water consumption), body weight (BW), eye/hair matting and other effects. […]

GI50 (MOLM-13 cells): 1.2 nM
SMILES: CN1C[C@H](Nc2cnn(C)c(=O)c2Br)C[C@H](c2ccc(C(=O)N3CCC(CN4CCN(c5ccc6c(c5)CN(C5CCC(=O)NC5=O)C6=O)CC4)CC3)cc2)C1 (stereo partly drawn) [Compound 22, 3-(5-(4-((1-(4-((3R,5R)-5-((5-bromo-1-methyl-6-oxo-1,6-dihydropyridazin-4-yl)amino)-1-methylpiperidin-3-yl)benzoyl)piperidin-4-yl)methyl)piperazin-1-yl)-1-oxoisoindolin-2-yl)piperidine-2,6-dione]
histone acetylation (e.g., AcH3K9) levels [1]: reduce histone acetylation (e.g., AcH3K9) levels
tumor growth inhibition in vivo [2]: tumor growth inhibition in vivo; also recorded: inhibit cell growth in vitro and in vivo
